# Assay results as given in patent US20090082398A1 (Teva Pharmaceutical Industries Ltd., priority 2004, published 2009).
# Structures can show the parent of a compound that is named as a salt.
# Key:
# Assay type in all cases: physicochemical
# [1] = Microscope observation of particle morphology; settings: hydrochloride
# Source text: The morphology of an active pharmaceutical substance plays an important role in drug performance, and has a profound impact on handling during milling processes and during drug product manufacturing. […].
# [2] = Exposure in controlled humidity cells, 7 days at room temperature, tested by XRD and KF titration; parameters: Water content: unit not given here; settings: for Water content: KF titration
# Experimental: 200 mg of Fexofenadine HCl Form XVI was spread as a thin layer on an open dish, and then put in controlled humidity cells of 0, 20, 40, 60 and 80% RH for 7 days at room temperature. The samples were tested by XRD and by KF titration.
# [3] = Heating under atmospheric pressure, then tested by XRD; settings: 10 h
# [4] = Exposure of Form XX in controlled humidity cells, 9 days at 30 C, tested by XRD
Structure (SMILES),Water content ([2]; 0% RH),"Crystal Form content by XRD ([2]; 0% RH, hydrochloride)",Water content ([2]; 20% RH),"Crystal Form content by XRD ([2]; 20% RH, hydrochloride)",Water content ([2]; 40% RH),"Crystal Form content by XRD ([2]; 40% RH, hydrochloride)",Water content ([2]; 60% RH),"Crystal Form content by XRD ([2]; 60% RH, hydrochloride)",Crystal Form content by XRD ([2]; 80% RH),Water content ([2]; 80% RH),other results
"CC(C)(C(=O)O)c1ccc(C(O)CCCN2CCC(C(O)(c3ccccc3)c3ccccc3)CC2)cc1 (centres unmarked) [Fexofenadine HCl form I, fexofenadine hydrochloride, reference compound]",,,,,,,,,,,Particle morphology ([1]; listed as fexofenadine HCl form I): needles morphology
"CC(C)(C(=O)O)c1ccc(C(O)CCCN2CCC(C(O)(c3ccccc3)c3ccccc3)CC2)cc1 (centres unmarked) [Fexofenadine HCl Form XVI, fexofenadine hydrochloride]",4.2,mixture of Fexofenadine HCl Form XVI and Fexofenadine HCl Form XX,7.0,XVI,7.3,XVI,7.3,XVI,XVI,8.3,"Resulted Form ([3]; 65 C.): XVI; Resulted Form ([3]; 80 C.): XVI + Amorphous; Resulted Form ([3]; 100 C., hydrochloride): mixture of Fexofenadine HCl Form XVI and amorphous Form; Resulted Form ([3]; 100 C., listed as XVI, hydrochloride): XVI + Amorphous"
CC(C)(C(=O)O)c1ccc(C(O)CCCN2CCC(C(O)(c3ccccc3)c3ccccc3)CC2)cc1 (centres unmarked) [mixture of Fexofenadine HCl Form XVI and Fexofenadine HCl Fo] [fexofenadine hydrochloride],4.2,"85% XVI, 15% Form XX",7.0,"93% XVI, 7% Form XX",7.3,"96% XVI, 4% Form XX",7.3,"96% XVI, 4% Form XX",XVI,8.3,
"CC(C)(C(=O)O)c1ccc(C(O)CCCN2CCC(C(O)(c3ccccc3)c3ccccc3)CC2)cc1 (centres unmarked) [Fexofenadine HCl Form XX, fexofenadine hydrochloride]",,,,,,,,,,,Particle morphology ([1]; listed as fexofenadine HCl form XX): small rod shape particles; Crystal Form content by XRD ([4]; 40% RH): XVI + XX; Water content ([4]; 40% RH): 4.9; Crystal Form content by XRD ([4]; 60% RH): XVI + XX; Water content ([4]; 60% RH): 5.2; Crystal Form content by XRD ([4]; 80% RH): XVI; Water content ([4]; 80% RH): 7.8
